# Assay results published in patent publication US20250320205A1, “STAT6 DEGRADERS” (Gilead Sciences, Inc., priority 2024, published 2025).
# Legend:
# [1] = system: Eotaxin-3 (CCL26) release; assay: Human Whole Blood Eotaxin-3 Assay (IL-4 stimulated); assay type: cell-based; details: Homo sapiens; geometric mean across assay runs and compound batches; EC50 provided for test compounds with >80% Emax
# Procedure: This was a human whole blood assay using recombinant human Interleukin 4 to stimulate the blood and measuring the ability of the test compounds to inhibit eotaxin-3 release. The biological activities of the test compounds have been tested in human whole blood stimulated with IL-4 measuring Eotaxin-3 release. The test compounds were added to 384 well clear flat-bottom plate in a 4-fold serial dilution in triplicates using a liquid handler. Human whole blood stabilized in lithium-heparin tubes was added in a volume of 65 μL per well, resulting in a final DMSO concentration of 0.5%. The plate is incubated for 2 h at 37° C. under 5% CO2/95% air. Subsequently, 5 μL of recombinant human IL-4 (R&D Systems, cat #204-ILB) was added to the wells to a final concentration of 400 pM. The plate was incubated for 48 h at 37° C. under 5% CO2/95% air. The plate was spun down for 10 minutes at 500×g and 20 μL supernatant was harvested and transferred to a 384 well v-bottom plate using a liquid handler and stored at −20° C. until further analysis. 10 μL supernatant was used to measure the level of Eotaxin-3 (CCL26) using Human Eotaxin-3 MSD kit from Mesocsale (Cat #K251UEK-4). The assay was performed according to the manufacture instructions.
# STAT6 = target: T1, STAT6 (Homo sapiens, UniProt P42226); assay: STAT6 Degrader Assay (HiBiT based, HeLa LgBiT clone 4.14 cells); assay type: cell-based; details: for DC50: geometric mean across assay runs and compound batches, DC50 provided for test compounds with >80% Emax, read-out: STAT6 degradation DC50
# T1 construct: These cells express endogenous STAT6; host or cells: HeLa LgBiT clone 4.14 (CRISPR knock-in of HiBiT into the endogenous STAT6 gene)
# T1 sequence (P42226 1-847): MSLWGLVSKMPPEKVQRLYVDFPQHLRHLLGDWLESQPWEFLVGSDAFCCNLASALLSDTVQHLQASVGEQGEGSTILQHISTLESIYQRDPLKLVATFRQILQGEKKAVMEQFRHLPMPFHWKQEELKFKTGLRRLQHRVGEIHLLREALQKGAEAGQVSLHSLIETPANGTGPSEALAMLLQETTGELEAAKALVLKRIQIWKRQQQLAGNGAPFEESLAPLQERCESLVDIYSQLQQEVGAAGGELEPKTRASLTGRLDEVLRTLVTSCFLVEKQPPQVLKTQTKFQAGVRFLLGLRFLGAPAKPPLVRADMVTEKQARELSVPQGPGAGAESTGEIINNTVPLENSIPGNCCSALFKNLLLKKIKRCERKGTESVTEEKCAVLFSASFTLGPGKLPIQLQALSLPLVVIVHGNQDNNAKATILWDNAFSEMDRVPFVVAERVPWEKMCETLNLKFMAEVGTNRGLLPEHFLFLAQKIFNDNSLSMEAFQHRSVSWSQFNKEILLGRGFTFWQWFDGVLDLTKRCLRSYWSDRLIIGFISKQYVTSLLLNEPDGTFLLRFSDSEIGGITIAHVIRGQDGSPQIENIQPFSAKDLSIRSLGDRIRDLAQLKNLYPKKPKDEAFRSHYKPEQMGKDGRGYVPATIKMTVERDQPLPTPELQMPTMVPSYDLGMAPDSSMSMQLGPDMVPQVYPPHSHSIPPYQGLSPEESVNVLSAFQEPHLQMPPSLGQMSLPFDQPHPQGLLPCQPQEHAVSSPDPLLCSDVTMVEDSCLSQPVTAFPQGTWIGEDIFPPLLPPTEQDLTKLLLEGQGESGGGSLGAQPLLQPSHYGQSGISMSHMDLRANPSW
# Procedure: This was a HiBit based assay. A HeLa cell line stably transfected with a small protein, LgBit (Large Bit) was obtained from Promega. These cells express endogenous STAT6. A small 11 amino acid gene sequence (HiBiT) was inserted in the STAT6 gene using CRISPR technology. Once STAT6 protein is expressed in the cells, the HiBiT sequence will bind the LgBit in the cells resulting in a functional NanoBiT protein, giving a luminescent tag to STAT6. Single cell clones were prepared and the clone 4.14 was selected for the assay based on that clone showing high luminescence, high STAT6 phosphorylation upon stimulation with IL-4, and inhibition of luminescence when cells were treated with STAT6 siRNA. HeLa LgBiT clone 4.14 cells were suspended in DMEM with 10% FCS, 1% Pen/Strep, Na-pyrovate and Hygromycin B, at a concentration of 1.25*105 cells pr mL. 5000 cells were added pr well of a 384 well plate and 20 nL of compound was added by Echo® liquid handler. NN6394A (terfenadine, a toxic compound) was added to control wells at 50 μM concentration to establish the assay window. In these wells the cells are dead which equals 100% degradation of STAT6. After 4-24 h of incubation at 37° C. under 5% CO2/95% air, 5 μL substrate (Nano-GLO®) was added to the wells and the plates were centrifuged and incubated for 0.5 h. The luminescence in the wells as a measure of non-degraded STAT6 was measured in a plate reader (BMG Pherastar FSX). The measured DC50 (in nM) was determined.
EC50 [1],DC50 (STAT6),SMILES,also measured
121 nM,,"CNc1cc(=O)n(-c2ccnc3c2cc([C@H](C)N2CC=C(c4c(C)cc(C(=O)N5CCn6nc(CN7CCC(c8cc(OC)c(NC9CCC(=O)NC9=O)cc8F)CC7)cc6C5)cc4F)CC2)n3C)cc1F (stereo partly drawn) [Example 2g50, 3-((5-fluoro-4-(1-((5-(3-fluoro-4-(1-((S)-1-(4-(5-fluoro-4-(methylamino)-2-oxopyridin-1(2H)-yl)-1-meth-yl-1H-pyrrolo[2,3-b]pyridin-2-yl)ethyl)-1,2,3,6-tetrahydro-hydropyridin-4-yl)-5-methyl-benzoyl)-4,5,6,7-tetrahydro-pyrazolo[1,5-a]pyrazin-2-yl)-methyl)piperidin-4-yl)-2-methoxyphenyl)amino)piperi-dine-2,6-dione]",
51.7 nM,,"CNc1cc(=O)n(-c2ccnc3c2cc([C@@H](C)N2CCC(c4c(F)cc(C(=O)N5CCn6nc(CN7CCC(c8ccc(NC9CCC(=O)NC9=O)cc8F)CC7)cc6C5)cc4F)CC2)n3C)cc1F (stereo partly drawn) [Example 2g51, 3-((4-(1-((5-(3,5-difluoro-4-(1-((R)-1-(4-(5-fluoro-4-(methylamino)-2-oxopyridin-1(2H)-yl)-1-methyl-1H-pyrrolo[2,3-b]pyridin-2-yl)-ethyl)piperidin-4-yl)benzoyl)-4,5,6,7-tetrahydropyrazolo [1,5-a]pyrazin-2-yl)methyl)-piperidin-4-yl)-3-fluorophen-yl)amino)piperidine-2,6-dione]",
,14.8 nM,"CNc1ccn(-c2ccnc3c2cc(CN2CCC(c4c(C)cc(C(=O)N5CCC(CN6CCN(c7ccc(N[C@@H]8CCC(=O)NC8=O)cc7F)CC6)CC5)cc4F)CC2)n3C)c(=O)c1 (single isomer, unassigned) [Example 2g61]",
,0.2 nM,"CNc1ccn(-c2ccnc3c2cc([C@H](C)N2CC=C(c4c(C)cc(C(=O)N5CCn6nc(CN7CCC(c8ccc(N[C@@H]9CCC(=O)NC9=O)cc8F)CC7)cc6C5)cc4F)CC2)n3C)c(=O)c1 (single isomer, unassigned) [Example 2g17]",

# More lines, now with the values behind:
SMILES,EC50 [1],DC50 (STAT6),also measured
"CNc1cc(=O)n(-c2ccnc3c2cc(CN2CC=C(c4c(F)cc(C(=O)N5CCC(CN6CCN(c7ccc(N[C@H]8CCC(=O)NC8=O)cc7F)CC6)CC5)cc4F)CC2)n3C)cc1F (single isomer, unassigned) [Example 2g66]",173 nM,,
"CNc1ccn(-c2ccnc3c2cc([C@H](C)N2CC=C(c4c(C)cc(C(=O)N5CCC(CN6CCN(c7ncc(N[C@@H]8CCC(=O)NC8=O)cc7F)C[C@H]6C)CC5)cc4F)CC2)n3C)c(=O)c1 (single isomer, unassigned) [Example 2g115]",9.5 nM,,
"CNc1ccn(-c2ccnc3c2cc([C@H](C)N2CC=C(c4c(C)cc(C(=O)N5CCC(CN6CCN(c7ncc(N[C@@H]8CCC(=O)NC8=O)cc7F)C[C@@H]6C)CC5)cc4F)CC2)n3C)c(=O)c1 (single isomer, unassigned) [Example 2g96]",,14 nM,
"CNc1ccn(-c2ccnc3c2cc(CN2CCC(c4c(C)cc(C(=O)N5CCC(CN6CCN(c7ccc(NC8CCC(=O)NC8=O)cc7F)CC6)CC5)cc4F)CC2)n3C)c(=O)c1 (stereo not drawn) [Example 2g60, 3-((3-fluoro-4-(4-((1-(3-fluoro-5-methyl-4-(1-((1-methyl-4-(4-(methylamino)-2-oxopyridin-1(2H)-yl)-1H-pyrrolo[2,3-b]pyridin-2-yl)-methyl)piperidin-4-yl)benzo-yl)piperidin-4-yl)methyl)-piperazin-1-yl)phenyl)amino)-piperidine-2,6-dione]",,,"Emax (STAT6; HeLa, maximal STAT6 degradation): < 20%"
"CNc1ccn(-c2ccnc3c2cc([C@H](C)N2CC=C(c4c(C)cc(C(=O)N5CCC(CN6CCN(c7ccc(N[C@H]8CCC(=O)NC8=O)cc7F)C[C@H]6C)CC5)cc4F)CC2)n3C)c(=O)c1 (single isomer, unassigned) [Example 2g48]",,2.4 nM,
